Results on 13 compounds are retold here after patent publication US20120165319A1, “INHIBITORS OF INTERLEUKIN-1 BETA CONVERTING ENZYME” (VERTEX PHARMACEUTICALS INCORPORATED, priority 1995, published 2012).

Assay [1] concerns the target T1, ICE (Homo sapiens, UniProt P29466).
T1 sequence (P29466 120-297 limits assumed): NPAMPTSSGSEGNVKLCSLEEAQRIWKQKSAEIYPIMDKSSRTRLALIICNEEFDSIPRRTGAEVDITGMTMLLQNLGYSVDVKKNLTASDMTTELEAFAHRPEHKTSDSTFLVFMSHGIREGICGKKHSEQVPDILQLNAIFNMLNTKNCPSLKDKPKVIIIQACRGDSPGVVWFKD
T1 sequence (P29466 317-404 limits assumed): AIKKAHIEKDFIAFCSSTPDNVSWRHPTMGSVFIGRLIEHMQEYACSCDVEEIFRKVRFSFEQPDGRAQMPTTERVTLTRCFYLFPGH
Nature of the assay: Enzyme assay with UV-visible substrate (visible ICE assay, Succinyl-Tyr-Val-Ala-Asp-pNitroanilide). It counts as biochemical. Put shortly: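 Read-out is the rate of pNA chromophore release (mOD/min, linear fit) monitored at 405-603 nm over 20 min at 37° C. Substrate was succinyl-Tyr-Val-Ala-Asp-pNitroanilide, added after a 15 min room-temperature preincubation of ICE with inhibitor.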

Assay [2] relates to IL-1β, human peripheral blood mononuclear cells (PBMC). Put plainly: PBMC cell assay: IL-1β assay with human PBMC or enriched adherent mononuclear cells, LPS-stimulated. It counts as cell-based. Put shortly:
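Mature IL-1β is measured by ELISA in supernatants after 16–18 hr at 37 °C, 5% CO2, with LPS (5 ng/ml final) and test compound (0.1% DMSO final). Cells are human PBMC (6×10^6 cells/ml) or plate-adherent mononuclear cells (2.5−3.0×10^5 per well), and the 5–6 compound concentrations span the ICE Ki.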

The subject of assay [3] is IL-1β, human whole blood. Nature of the assay: Whole blood assay for IL-1β production. The settings on record: read-out: Whole human blood IC50. Type of assay: cell-based. Put shortly:
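IL-1β was quantified by ELISA in plasma diluted 1:200. The plasma came from EDTA-anticoagulated human whole blood incubated at 30 °C for 16-18 h with LPS (final 5.0 ng/ml) plus a saline serial dilution of compound. Controls were no-LPS, no-inhibitor and highest-vehicle.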

The mark [4] stands for this setting: Homo sapiens, PBMC, * = values obtained upon reassay.
[5] abbreviates: * = values obtained upon reassay.
[6] abbreviates: Homo sapiens, * = values obtained upon reassay.

Like-named read-outs stand apart in the source and are kept apart here. Where only a bound is given, the exact number is not on record here.

Usually Ki stands for a measure of affinity in units of concentration, obtained from inhibition or displacement. The term IC50 denotes the midpoint of a concentration-inhibition curve. Take `COCC(=O)N1C[C@H](NC(=O)c2cc(C)c(O)c(C)c2)C(=O)N(CC(=O)N[C@H](C=O)CC(=O)O)c2ccccc21` [Compound 689b, (3S)-3-[(3S)-2-Oxo-3-(3,5-dimethyl-4-hydroxybenzoyl)amino-5-methoxyacetyl-2,3,4,5-tetrahydro-1H-1,5-benzodiazepine-1-acetylamino]-4-oxo-butyric acid]: the affinity in assay [1] (Table 17) corresponds to a Ki of 2.2 nM. Besides, the IC50 in assay [2] (Homo sapiens, PBMC, Table 17) stood at 600 nM; in assay [3] (Homo sapiens, Table 17) it was 2000 nM.

For the compound `O=C[C@H](CC(=O)O)NC(=O)[C@@H]1CCCN2C(=O)CC[C@H](NC(=O)c3ccc(O)c(Cl)c3)C(=O)N12` [Compound 498], the inhibitory constant (Ki) in assay [1] (Table 5) turned out to be 1.5 nM. Further, the values for the IC50 in assay [2] (setting [4]), in assay [3] (setting [5]) and in assay [3] (setting [6]) were 560 nM, 400 nM and 500 nM, respectively.

For `O=C[C@H](CC(=O)O)NC(=O)CN1C(=O)[C@@H](NC(=O)c2ccccc2)CN(C(=O)NCc2ccccc2)c2ccccc21` [Compound 605p, (3S)-3-[(3S)-2-Oxo-3-benzoylamino-5-benzylaminocarbonyl-2,3,4,5-tetrahydro-1H-1,5-benzodiazepin-1-acetylamino]-4-oxo-butyric acid], the Ki in assay [1] (Table 5) was found to be 125 nM. In addition, the 50% inhibitory concentration (IC50) is 3200 nM in assay [2] (setting [4]) and greater than 20000 nM in assay [3] (setting [6]).

In assay [1] (Table 17), `O=C[C@H](CC(=O)O)NC(=O)CN1C(=O)[C@@H](NC(=O)c2cccc3ccccc23)CN(C=O)c2ccccc21` [Compound 653, (3S)-3-[(3S)-2-Oxo-3-(1-naphthoyl)amino-5-formyl-2,3,4,5-tetrahydro-1H-1,5-benzodiazepine-1-acetylamino]-4-oxo-butyric acid] had a Ki of 30 nM. The IC50 turned out to be 2300 nM in assay [2] (Homo sapiens, PBMC, Table 17) and 6000 nM in assay [3] (Homo sapiens, Table 17).

In assay [1] (Table 5), `O=C[C@H](CC(=O)O)NC(=O)[C@@H]1CCCN2C(=O)CC[C@H](NC(=O)c3ccc4cc(O)ccc4c3)C(=O)N12` [Compound 425] returned a Ki of 0.8 nM. Moreover, the IC50 in assay [2] (setting [5]) is 700 nM; in assay [2] (setting [4]), 650 nM; in assay [3] (setting [6]) it was 650 nM.

In assay [1] (Table 5), `O=C[C@H](CC(=O)O)NC(=O)[C@@H]1CCCN2C(=O)CC[C@H](NC(=O)c3ccc4ccccc4c3)C(=O)N12` [Compound 407] displayed a Ki of 0.4 nM. The IC50 came to 540 nM in assay [2] (setting [4]) and 1700 nM in assay [3] (setting [6]).

On to `CC(=O)N1C[C@H](NC(=O)C(=O)c2ccccc2)C(=O)N(CC(=O)N[C@H](C=O)CC(=O)O)c2ccccc21` [Compound 635], for which the Ki in assay [1] (Table 5) was 55 nM. For the same compound, the IC50 was 3400 nM in assay [2] (setting [5]), 1900 nM in assay [2] (setting [4]) and 4000 nM in assay [3] (setting [6]).

In assay [1] (Table 17), `COc1ccccc1C(=O)C(=O)N[C@H]1CN(C(=O)CO)c2ccccc2N(CC(=O)N[C@H](C=O)CC(=O)O)C1=O` [Compound 921] had a Ki of 8.5 nM. Also, the IC50 in assay [2] (Homo sapiens, PBMC, Table 17) came out at 1800 nM; in assay [3] (Homo sapiens, Table 17) it was 3000 nM.

`O=C[C@H](CC(=O)O)NC(=O)CN1C(=O)[C@@H](NC(=O)c2ccc3c(c2)OCO3)CN(C(=O)CO)c2ccccc21` [Compound 910] had an inhibition constant Ki in assay [1] (Table 17) of 10 nM. Besides, the IC50 in assay [2] (Homo sapiens, PBMC, Table 17) is 3400 nM; in assay [3] (Homo sapiens, Table 17), 3800 nM.

As to `CCCC(=O)Nc1ccc(C(=O)N[C@H]2CCC(=O)N3CCC[C@@H](C(=O)N[C@H](C=O)CC(=O)O)N3C2=O)cc1` [Compound 488], the Ki in assay [1] (Table 5) turned out to be 1.5 nM. Further, the 50% inhibitory concentration (IC50) is 940 nM in assay [2] (setting [4]) and 750 nM in assay [3] (setting [6]).

In the case of `CC(=O)N1C[C@H](NC(=O)OCc2ccccc2)C(=O)N(CC(=O)N[C@H](C=O)CC(=O)O)c2ccccc21` [Compound 633], the Ki in assay [1] (Table 5) was 92 nM. In addition, the IC50 in assay [2] (setting [4]) came to 5750 nM; in assay [3] (setting [6]), 20000 nM.

Compound `O=C[C@H](CC(=O)O)NC(=O)CN1C(=O)[C@@H](NC(=O)c2cc3ccccc3[nH]2)CN(C(=O)CO)c2ccccc21` [Compound 919] displayed a Ki in assay [1] (Table 17) of 4 nM. Also, the IC50 is 2000 nM in assay [2] (Homo sapiens, PBMC, Table 17) and 4300 nM in assay [3] (Homo sapiens, Table 17).

In turn, `O=C[C@H](CC(=O)O)NC(=O)[C@@H]1CCCN2C(=O)CCN(NC(=O)C(=O)c3ccccc3)C(=O)N12` [Compound 1106] gave an inhibition constant (Ki) in assay [1] (Table 17) of 75 nM. The IC50 in assay [2] (Homo sapiens, PBMC, Table 17) was found to be 4000 nM; in assay [3] (Homo sapiens, Table 17), 1700 nM.
